According to patent US8541588B2, “Sulfonamide derivatives” (Pfizer Limited, priority 2009, dated 2013):

Target: T1, Nav1.7 (or SCN9A) channel; HEK cells stably transfected with hSCN9A (Homo sapiens, UniProt Q15858)
T1 construct: expressed in transfected cells
Experiment: Nav1.7 block, PatchXpress 7000 automated whole-cell voltage clamp, estimated IC50 (EIC50)
Assay type: cell-based
Details: estimated IC50, PatchXpress platform

[1] = hSCN9A HEK cells, Examples 283-814
[2] = hSCN9A HEK cells, Examples 815-1040
[3] = hSCN9A HEK cells held at V1/2 of inactivation

T1 sequence (Q15858 whole entry): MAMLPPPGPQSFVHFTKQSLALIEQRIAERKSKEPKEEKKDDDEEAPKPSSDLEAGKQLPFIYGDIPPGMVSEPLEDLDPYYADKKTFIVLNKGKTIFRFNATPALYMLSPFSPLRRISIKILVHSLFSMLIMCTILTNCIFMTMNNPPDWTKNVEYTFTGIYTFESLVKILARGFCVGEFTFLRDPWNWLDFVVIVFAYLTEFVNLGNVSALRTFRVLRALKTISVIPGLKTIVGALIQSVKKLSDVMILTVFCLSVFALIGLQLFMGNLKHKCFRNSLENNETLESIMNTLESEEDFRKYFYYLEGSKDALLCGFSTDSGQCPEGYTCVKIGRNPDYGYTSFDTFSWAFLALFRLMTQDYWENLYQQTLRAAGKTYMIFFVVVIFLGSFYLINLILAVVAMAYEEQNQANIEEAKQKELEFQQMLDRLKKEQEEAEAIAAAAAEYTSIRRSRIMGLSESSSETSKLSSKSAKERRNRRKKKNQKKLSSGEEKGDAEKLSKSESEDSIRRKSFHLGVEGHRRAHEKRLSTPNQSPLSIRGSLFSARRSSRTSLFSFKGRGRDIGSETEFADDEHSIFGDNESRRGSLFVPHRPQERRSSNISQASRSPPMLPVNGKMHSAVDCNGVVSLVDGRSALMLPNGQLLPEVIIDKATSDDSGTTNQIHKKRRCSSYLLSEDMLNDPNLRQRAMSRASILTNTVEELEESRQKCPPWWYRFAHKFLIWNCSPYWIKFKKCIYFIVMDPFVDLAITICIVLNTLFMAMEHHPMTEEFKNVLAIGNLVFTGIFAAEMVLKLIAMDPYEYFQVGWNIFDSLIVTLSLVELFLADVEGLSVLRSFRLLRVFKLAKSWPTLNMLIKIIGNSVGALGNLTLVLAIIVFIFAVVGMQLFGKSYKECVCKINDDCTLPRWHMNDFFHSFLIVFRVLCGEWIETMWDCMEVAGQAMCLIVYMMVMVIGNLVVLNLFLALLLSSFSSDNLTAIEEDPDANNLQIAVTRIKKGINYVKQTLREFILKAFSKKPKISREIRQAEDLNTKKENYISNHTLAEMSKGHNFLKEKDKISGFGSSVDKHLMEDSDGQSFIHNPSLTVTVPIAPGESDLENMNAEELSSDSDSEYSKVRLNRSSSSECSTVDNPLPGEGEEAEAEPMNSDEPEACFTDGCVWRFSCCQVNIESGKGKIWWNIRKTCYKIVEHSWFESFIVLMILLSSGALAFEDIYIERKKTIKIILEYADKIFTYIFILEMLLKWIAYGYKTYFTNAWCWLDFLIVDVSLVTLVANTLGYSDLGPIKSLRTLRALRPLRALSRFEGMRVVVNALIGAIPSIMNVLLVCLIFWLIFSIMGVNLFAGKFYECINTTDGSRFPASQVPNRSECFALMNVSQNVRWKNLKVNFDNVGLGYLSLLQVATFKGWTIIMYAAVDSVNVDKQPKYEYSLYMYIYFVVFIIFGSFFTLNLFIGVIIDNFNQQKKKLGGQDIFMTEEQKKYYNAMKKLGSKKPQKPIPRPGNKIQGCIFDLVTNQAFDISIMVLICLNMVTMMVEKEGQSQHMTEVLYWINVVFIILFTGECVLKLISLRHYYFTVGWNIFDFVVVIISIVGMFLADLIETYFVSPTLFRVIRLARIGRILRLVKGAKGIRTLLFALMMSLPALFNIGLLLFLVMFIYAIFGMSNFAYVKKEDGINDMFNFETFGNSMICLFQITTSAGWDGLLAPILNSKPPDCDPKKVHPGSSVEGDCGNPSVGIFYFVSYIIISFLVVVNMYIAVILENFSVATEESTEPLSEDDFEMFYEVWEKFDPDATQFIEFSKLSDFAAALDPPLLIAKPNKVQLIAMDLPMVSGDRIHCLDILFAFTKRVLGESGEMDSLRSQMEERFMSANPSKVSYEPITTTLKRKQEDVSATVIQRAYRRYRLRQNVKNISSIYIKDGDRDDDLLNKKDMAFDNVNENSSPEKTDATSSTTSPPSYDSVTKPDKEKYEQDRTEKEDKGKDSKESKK

Row | SMILES | IC50 [1] | further results
1 | Cc1cc(-c2ccccc2Oc2ccc(S(=O)(=O)Nc3ccc(F)cn3)cc2C#N)sn1 [Example 571, 3-cyano-N-(5-fluoropyridin-2-yl)-4-[2-(3-methylisothiazol-5-yl)phenoxy]benzenesulfonamide] | 10000 nM | 
2 | CN1CC(n2nccc2-c2cc(Cl)ccc2Oc2cc(F)c(S(=O)(=O)Nc3nncs3)cc2Cl)C1 [Example 884, 5-chloro-4-{4-chloro-2-[1-(1-methylazetidin-3-yl)-1H-pyrazol-5-yl]phenoxy}-2-fluoro-N-1,3,4-thiadiazol-2-ylbenzenesulfonamide] |  | IC50 [2]: 36 nM
3 | Cc1nn(C)c(C)c1Cc1ccc(Oc2ccc(S(=O)(=O)Nc3ccc(F)cn3)cc2C#N)cc1 [Example 565, 3-cyano-N-(5-fluoropyridin-2-yl)-4-{4-[(1,3,5-trimethyl-1H-pyrazol-4-yl)methyl]phenoxy}benzenesulfonamide] | 54000 nM | 
4 | N#Cc1cc(S(=O)(=O)Nc2cncs2)ccc1Oc1ccccc1-c1ccccc1 [Example 105, 4-(biphenyl-2-yloxy)-3-cyano-N-1,3-thiazol-5-ylbenzenesulfonamide] |  | IC50 [3]: 2670 nM
5 | Cc1noc(C)c1Cc1ccc(Oc2ccc(S(=O)(=O)Nc3nccs3)cc2F)cc1 [Example 122, 4-{4-[(3,5-dimethylisoxazol-4-yl)methyl]phenoxy}-3-fluoro-N-1,3-thiazol-2-ylbenzenesulfonamide] |  | IC50 [3]: 4540 nM
6 | O=C(c1cccc(-c2cc(Cl)ccc2Oc2ccc(S(=O)(=O)Nc3ccncn3)cc2Cl)c1)N1CCC1 [Example 858, 4-{[3′-(azetidin-1-ylcarbonyl)-5-chlorobiphenyl-2-yl]oxy}-3-chloro-N-pyrimidin-4-ylbenzenesulfonamide] |  | IC50 [2]: 17 nM
7 | COCCn1ccc(-c2cc(Cl)ccc2Oc2cc(F)c(S(=O)(=O)Nc3nncs3)cc2Cl)n1 [Example 819, 5-chloro-4-{4-chloro-2-[1-(2-methoxyethyl)-1H-pyrazol-3-yl]phenoxy}-2-fluoro-N-1,3,4-thiadiazol-2-ylbenzenesulfonamide] |  | IC50 [2]: 2400 nM
8 | N#Cc1cc(S(=O)(=O)Nc2nccs2)ccc1Oc1cnn(-c2ccc(Cl)cc2)c1 [Example 332, 4-{[1-(4-chlorophenyl)-1H-pyrazol-4-yl]oxy}-3-cyano-N-1,3-thiazol-2-ylbenzenesulfonamide] | >1000 nM | 
9 | Cn1nccc1-c1cc(F)ccc1Oc1ccc(S(=O)(=O)Nc2ccncn2)cc1F [Example 528, 3-fluoro-4-[4-fluoro-2-(1-methyl-1H-pyrazol-5-yl)phenoxy]-N-pyrimidin-4-ylbenzenesulfonamide] | 740 nM | 
10 | COCc1cnn(-c2ccc(Oc3ccc(S(=O)(=O)Nc4nccs4)cc3C#N)cc2)c1 [Example 376, 3-cyano-4-{4-[4-(methoxymethyl)-1H-pyrazol-1-yl]phenoxy}-N-1,3-thiazol-2-ylbenzenesulfonamide] | >1000 nM | 
11 | Cn1nccc1-c1cc(Cl)ccc1Oc1ccc(S(=O)(=O)Nc2ccc(F)cn2)cc1F [Example 514, 4-[4-chloro-2-(1-methyl-1H-pyrazol-5-yl)phenoxy]-3-fluoro-N-(5-fluoropyridin-2-yl)benzenesulfonamide] | 1100 nM | 
12 | N#Cc1cc(S(=O)(=O)Nc2nccs2)ccc1Oc1cc(-c2ccc(Cl)cc2)nn1CC(F)(F)F [Example 189, 4-[5-(4-chloro-phenyl)-2-(2,2,2-trifluoro-ethyl)-2H-pyrazol-3-yloxy]-3-cyano-N-thiazol-2-yl-benzenesulfonamide] |  | IC50 [3]: 2800 nM
13 | N#Cc1cc(S(=O)(=O)Nc2ncns2)ccc1Oc1cc(C(F)(F)F)nn1-c1ccc(F)cc1F [Example 58, 3-cyano-4-{[1-(2,4-difluorophenyl)-3-(trifluoromethyl)-1H-pyrazol-5-yl]oxy}-N-1,2,4-thiadiazol-5-ylbenzenesulfonamide] |  | IC50 [3]: 340 nM
14 | N#Cc1cc(S(=O)(=O)Nc2nccs2)ccc1Oc1cc(C2CC2)nn1-c1ccccn1 [Example 191, 3-cyano-4-(5-cyclopropyl-2-pyridin-2-yl-2H-pyrazol-3-yloxy)-N-thiazol-2-yl-benzenesulfonamide] |  | IC50 [3]: >10000 nM
15 | CC(C)(C)n1nccc1-c1cc(F)ccc1Oc1ccc(S(=O)(=O)Nc2nccs2)cc1F [Example 217, 4-(2-(1-tert-butyl-1H-pyrazol-5-yl)-4-fluorophenoxy)-3-fluoro-N-(thiazol-2-yl)benzenesulfonamide] |  | IC50 [3]: 510 nM
16 | CCn1nc(C(F)(F)F)cc1-c1ccc(Oc2ccc(S(=O)(=O)Nc3nccs3)cc2C#N)c(F)c1 [Example 328, 3-cyano-4-{4-[1-ethyl-3-(trifluoromethyl)-1H-pyrazol-5-yl]-2-fluorophenoxy}-N-1,3-thiazol-2-ylbenzenesulfonamide] | 81 nM | 
17 | Cc1nn(C)c(C)c1Cc1ccc(Oc2ccc(S(=O)(=O)Nc3nccs3)cc2F)cc1 [Example 118, 3-fluoro-N-1,3-thiazol-2-yl-4-{4-[(1,3,5-trimethyl-1H-pyrazol-4-yl)methyl]phenoxy}benzenesulfonamide] |  | IC50 [3]: 18400 nM
18 | N#Cc1cc(S(=O)(=O)Nc2nccs2)ccc1Oc1ccc(-n2ccc(C(F)(F)F)n2)cc1C(F)(F)F [Example 492, 3-cyano-N-1,3-thiazol-2-yl-4-{2-(trifluoromethyl)-4-[3-(trifluoromethyl)-1H-pyrazol-1-yl]phenoxy}benzenesulfonamide] | 1500 nM | 
19 | Cc1cncnc1NS(=O)(=O)c1ccc(Oc2ccccc2-c2ccccc2)c(C#N)c1 [Example 428, 4-(biphenyl-2-yloxy)-3-cyano-N-(5-methylpyrimidin-4-yl)benzenesulfonamide] | >10000 nM | 
20 | N#Cc1cc(S(=O)(=O)Nc2nccs2)ccc1Oc1ccc(Br)cc1-c1ccn[nH]1 [Example 461, 4-[4-bromo-2-(1H-pyrazol-5-yl)phenoxy]-3-cyano-N-1,3-thiazol-2-ylbenzenesulfonamide] | 20 nM | 

Continued, in another order:

Row | IC50 [1] | SMILES | further results
21 | 120 nM | N#Cc1cc(S(=O)(=O)Nc2ncc(Cl)s2)ccc1Oc1ccc(Cl)cc1C1COC1 [Example 588, 4-(4-Chloro-2-oxetan-3-ylphenoxy)-N-(5-chloro-1,3-thiazol-2-yl)-3-cyanobenzenesulfonamide] | 
22 | >1000 nM | Nc1nccc(-c2cc(F)ccc2Oc2cc(F)c(S(=O)(=O)Nc3ncc(Cl)s3)cc2F)n1 [Example 622, 4-[2-(2-aminopyrimidin-4-yl)-4-fluorophenoxy]-N-(5-chloro-1,3-thiazol-2-yl)-2,5-difluorobenzenesulfonamide] | 
23 | 1.2 nM | O=S(=O)(Nc1ncns1)c1cc(F)c(Oc2ccc(C(F)(F)F)cc2-c2cn[nH]c2)cc1F [Example 790, 2,5-difluoro-4-[2-(1H-pyrazol-4-yl)-4-(trifluoromethyl)phenoxy]-N-1,2,4-thiadiazol-5-ylbenzenesulfonamide] | 
24 | 140 nM | Cn1nccc1-c1ccc(C(F)(F)F)cc1Oc1ccc(S(=O)(=O)Nc2nccs2)cc1C#N [Example 699, 3-cyano-4-[2-(1-methyl-1H-pyrazol-5-yl)-5-(trifluoromethyl)phenoxy]-N-1,3-thiazol-2-ylbenzenesulfonamide] | 
25 | 88 nM | O=S(=O)(Nc1ncc(F)s1)c1ccc(Oc2ccc(Cl)cc2-c2cn[nH]c2)c(F)c1 [Example 674, 4-[4-chloro-2-(1H-pyrazol-4-yl)phenoxy]-3-fluoro-N-(5-fluoro-1,3-thiazol-2-yl)benzenesulfonamide] | 
26 | 1300 nM | N#Cc1cc(S(=O)(=O)Nc2nccs2)ccc1Oc1ccc(F)cc1-c1cnn(CC(F)(F)F)c1 [Example 641, 3-cyano-4-{4-fluoro-2-[1-(2,2,2-trifluoroethyl)-1H-pyrazol-4-yl]phenoxy}-N-1,3-thiazol-2-ylbenzenesulfonamide] | 
